The results in this text go back to patent US20100292255A1, “Therapeutic Compounds and Their Use in Treating Diseases and Disorders” (Myriad Pharmaceuticals, Inc., priority 2007, published 2010).

This experiment has as its target T1, purified human Hsp90.
T1 construct: purified human Hsp90 (Stressgen, SPP-770)
The experiment in a line: Hsp90 binding assay: displacement of BODIPY-labeled geldanamycin measured by fluorescence polarization. The note with it: BODIPY-GM 10 nM, Hsp90 30 nM, overnight at room temperature; for IC50: read-out: GM displacement from purified Hsp90 measured by FP IC 50; for GM displacement from purified Hsp90 measured by FP Inhibition by 5 μM compd. (%): 5 μM compound. As to the method:
Binding of the Example Compounds to purified Hsp90 was assayed by measuring the displacement of BODIPY-labeled geldanamycin (BODIPY-GM) from purified human Hsp90, using a fluorescence polarization assay adapted from Kim et al. (J. Biomolec. Screening, 9(5):375-381 (2004)). Compound dilutions (in 100% DMSO) were added to black-bottom 96-well plates (Greiner Bio-One, Monroe, N.C.) in 2% DMSO final, and equal volumes of BODIPY-GM (10 nM final) and purified human Hsp90 (Stressgen, SPP-770; 30 nM final) (Assay Designs, Ann Arbor, Mich.) in assay buffer (20 mM HEPES-KOH pH 7.3, 50 mM KCl, 5 mM MgCl2, 20 mM Na2MoO4, 0.01% NP-40, 0.1 mg/mL bovine gamma globulin [P2045; Invitrogen, Carlsbad, Calif.], 2 mM DTT) were added sequentially to yield a final volume of 50 microliters. Plates were incubated overnight at room temperature. Parallel and perpendicular fluorescence measurements were read (Analyst AD plate reader; LJL BioSystems, Middletown, Conn.) with excitation/emission wavelengths of 485/530 nm. Background fluorescence (buffer only) was subtracted, and fluorescence polarization (FP) values, expressed in mP units, were calculated from parallel and perpendicular fluorescence readings as follows:
FP=(parallel−perpendicular)/(parallel+perpendicular)*1000.
Percent inhibition was calculated by normalizing the FP values to those obtained in parallel reactions containing DMSO and subtracting these normalized values from 100%. Intrinsic compound fluorescence was independently monitored, and FP data points confounded by compound fluorescence were excluded from the analysis.

Molecules are shown by their SMILES.

Regarding `CN1CCOc2cc(Sc3nc4c(N)ncnc4n3CCC3CCN(C=O)CC3)c(Cl)cc21` [Example Compound 185, 4-(2-{6-Amino-8-[(6-chloro-4-methyl-3,4-dihydro-2H-1,4-benzoxazin-7-yl)thio]-9H-purin-9-yl}ethyl)piperidine-1-carbaldehyde], the IC50 was determined as 400 nM. The same measure, in the same setting: for `CN1CCOc2cc(Sc3nc4c(N)ncnc4n3CCC3CCN(C=O)CC3)ccc21` [Example Compound 187, 4-(2-{6-Amino-8-[(4-methyl-3,4-dihydro-2H-1,4-benzoxazin-7-yl)thio]-9H-purin-9-yl}ethyl)piperidine-1-carbaldehyde] the value was 5000 nM; for `N#Cc1cc2c(cc1Sc1nc3c(N)ncnc3n1CCC1CCN(C(=O)[C@@H]3CC(F)(F)CN3)CC1)OCO2` [compound 135, 6-[(6-Amino-9-{2-[1-(4,4-difluoro-L-prolyl)piperidin-4-yl]ethyl}-9H-purin-8-yl)thio]-1,3-benzodioxole-5-carbonitrile], 900 nM; for `Nc1ncnc2c1nc(Sc1cc3c(cc1Br)OCCO3)n2CCC1CCN(C(=O)CS)CC1` [Example Compound 162, 2-[4-(2-{6-Amino-8-[(7-bromo-2,3-dihydro-1,4-benzodioxin-6-yl)thio]-9H-purin-9-yl}ethyl)piperidin-1-yl]-2-oxoethanethiol], 60 nM. As for `CC(C)(O)C(=O)N1CCC(CCn2c(Sc3cc4c(cc3Br)OCCO4)nc3c(N)ncnc32)CC1` [compound 92, 1-[4-(2-{6-Amino-8-[(7-bromo-2,3-dihydro-1,4-benzodioxin-6-yl)thio]-9H-purin-9-yl}ethyl)piperidin-1-yl]-2-methyl-1-oxopropan-2-ol], the IC50 was 90 nM.

For `CCc1ccc(Br)c(Sc2nc3c(N)ncn(CCC4CCN(C(=O)[C@H](C)O)CC4)c-3n2)c1` [compound 112, (2S)-1-[4-(2-{6-Amino-8-[(2-bromo-5-ethylphenyl)thio]-3H-purin-3-yl}ethyl)piperidin-1-yl]-1-oxopropan-2-ol], the “GM displacement from purified Hsp90 measured by FP Inhibition by 5 μM compd. (%)” value is on record as 13.0%. Take `Nc1ncnc2c1nc(Sc1cc3c(cc1[N+](=O)[O-])OCO3)n2CCC1CCN(C=O)CC1` [compound 64, 4-(2-{6-Amino-8-[(6-nitro-1,3-benzodioxol-5-yl)thio]-9H-purin-9-yl}ethyl)piperidine-1-carbaldehyde]: the IC50 worked out at 1500 nM.

`CCC(=O)N1CCC(CCn2c(Sc3cc4c(cc3C#N)OCO4)nc3c(N)ncnc32)CC1` [compound 61]: the IC50 is 200 nM. Regarding `CC(C)C(=O)N1CCC(CCn2cnc(N)c3nc(Sc4cc5c(cc4Br)OCO5)nc2-3)CC1` [compound 26, 8-[(6-Bromo-1,3-benzodioxol-5-yl)thio]-3-[2-(1-isobutyrylpiperidin-4-yl)ethyl]-3H-purin-6-amine], the “GM displacement from purified Hsp90 measured by FP Inhibition by 5 μM compd. (%)” value came to 55.0%. With `Nc1ncnc2c1nc(Sc1cc3occc3cc1Br)n2CCC1CCN(C=O)CC1` [Example Compound 168, 4-(2-{6-Amino-8-[(5-bromo-1-benzofuran-6-yl)thio]-9H-purin-9-yl}ethyl)piperidine-1-carbaldehyde], the IC50 is 95 nM.

On to `Nc1ncnc2c1nc(Sc1cc3c(cc1Br)OCO3)n2CCC1CCN(S(N)(=O)=O)CC1` [Example Compound 148, 4-(2-{6-Amino-8-[(6-bromo-1,3-benzodioxol-5-yl)thio]-9H-purin-9-yl}ethyl)piperidine-1-sulfonamide], for which the IC50 stood at 400 nM. Consider `C[C@@H](NC(=O)CC(C)(C)C)C(=O)N1CCC(Cn2c(Sc3cc4c(cc3Br)OCCO4)nc3c(N)ncnc32)CC1` [compound 129, N-{(1R)-2-[4-({6-Amino-8-[(7-bromo-2,3-dihydro-1,4-benzodioxin-6-yl)thio]-9H-purin-9-yl}methyl)piperidin-1-yl]-1-methyl-2-oxoethyl}-3,3-dimethylbutanamide], for which the IC50 is 3000 nM. On to `NC(=O)CCC(=O)N1CCC(CCn2c(Sc3cc4c(cc3Br)OCO4)nc3c(N)ncnc32)CC1` [Example Compound 155, 4-[4-(2-{6-Amino-8-[(6-bromo-1,3-benzodioxol-5-yl)thio]-9H-purin-9-yl}ethyl)piperidin-1-yl]-4-oxobutanamide], for which the IC50 turned out to be 300 nM. On the same count and under the same terms, next, `CCCN1CCCCC1CCn1c(Sc2cc3c(cc2C#N)OCO3)nc2c(N)ncnc21` (stereo not drawn) [compound 50, 6-({6-Amino-9-[2-(1-propylpiperidin-2-yl)ethyl]-9H-purin-8-yl}thio)-1,3-benzodioxole-5-carbonitrile]: 1200 nM; `Nc1ncnc2c1nc(Sc1cc3c(cc1Br)OCO3)n2CCC(NC(=O)CO)C1CC1` (stereo not drawn) [compound 141, N-(3-{6-Amino-8-[(6-bromo-1,3-benzodioxol-5-yl)thio]-9H-purin-9-yl}-1-cyclopropylpropyl)-2-hydroxyacetamide]: 170 nM. Consider `CS(=O)(=O)N1CCC(CCn2cnc(N)c3nc(Sc4cc5c(cc4Br)OCCO5)nc2-3)CC1` [compound 17, 8-[(7-Bromo-2,3-dihydro-1,4-benzodioxin-6-yl)thio]-3-{2-[1-(methylsulfonyl)piperidin-4-yl]ethyl}-3H-purin-6-amine], for which the “GM displacement from purified Hsp90 measured by FP Inhibition by 5 μM compd. (%)” value was determined as 33.0%. Take `COC(=O)c1cc2c(cc1Sc1nc3c(N)ncnc3n1CCC1CCNCC1)OCO2` [Example Compound 174, Methyl 6-{[6-amino-9-(2-piperidin-4-ylethyl)-9H-purin-8-yl]thio}-1,3-benzodioxole-5-carboxylate]: the IC50 is 150 nM. The same measure, in the same setting: next, `C[C@H](O)C(=O)N1CCC(CCn2c(Sc3cc(O)c(O)cc3Br)nc3c(N)ncnc32)CC1` [Example Compound 209, 4-{[6-Amino-9-(2-{1-[(2S)-2-hydroxypropanoyl]piperidin-4-yl}ethyl)-9H-purin-8-yl]thio}-5-bromobenzene-1,2-diol]: 2100 nM. Take `CC(C)(C)[C@H](O)C(=O)N1CCC(CCn2cnc(N)c3nc(Sc4cc5c(cc4Br)OCCO5)nc2-3)CC1` [compound 107, (2S)-1-[4-(2-{6-Amino-8-[(7-bromo-2,3-dihydro-1,4-benzodioxin-6-yl)thio]-3H-purin-3-yl}ethyl)piperidin-1-yl]-3,3-dimethyl-1-oxobutan-2-ol]: the “GM displacement from purified Hsp90 measured by FP Inhibition by 5 μM compd. (%)” value is recorded as 59.0%.

On to `CC(=O)N1CCC(CCn2cnc(N)c3nc(Sc4cc5c(cc4[N+](=O)[O-])OCO5)nc2-3)CC1` [compound 71, 3-[2-(1-Acetylpiperidin-4-yl)ethyl]-8-[(6-nitro-1,3-benzodioxol-5-yl)thio]-3H-purin-6-amine], for which the “GM displacement from purified Hsp90 measured by FP Inhibition by 5 μM compd. (%)” value is reported as 23.0%. On the same count and under the same terms, next, `CCN(CC)C(=O)CN1CCC(CCn2cnc(N)c3nc(Sc4cc5c(cc4Br)OCCO5)nc2-3)CC1` [compound 28, 2-[4-(2-{6-Amino-8-[(7-bromo-2,3-dihydro-1,4-benzodioxin-6-yl)thio]-3H-purin-3-yl}ethyl)piperidin-1-yl]-N,N-diethylacetamide]: 40.0%. Consider `Cn1nnnc1N1CCC(CCn2c(Sc3cc4c(cc3C#N)OCCO4)nc3c(N)ncnc32)CC1` [compound 58, 7-[(6-Amino-9-{2-[1-(1-methyl-1H-tetrazol-5-yl)piperidin-4-yl]ethyl}-9H-purin-8-yl)thio]-2,3-dihydro-1,4-benzodioxine-6-carbonitrile], for which the IC50 turned out to be 180 nM. `CO[C@H](C)C(=O)N1CCC(CCn2c(Sc3cc4c(cc3C#N)OCO4)nc3c(N)ncnc32)CC1` [compound 35, 6-{[6-Amino-9-(2-{1-[(2R)-2-methoxypropanoyl]piperidin-4-yl}ethyl)-9H-purin-8-yl]thio}-1,3-benzodioxole-5-carbonitrile]: the IC50 was 500 nM. As to `C[C@H](NC(=O)OC(C)(C)C)C(=O)N1CCCC(Cn2cnc(N)c3nc(Sc4nc5cccc(Cl)c5s4)nc2-3)C1` (stereo partly drawn) [compound 116, tert-Butyl {(1S)-2-[3-({6-amino-8-[(7-chloro-1,3-benzothiazol-2-yl)thio]-3H-purin-3-yl}methyl)piperidin-1-yl]-1-methyl-2-oxoethyl}carbamate], the “GM displacement from purified Hsp90 measured by FP Inhibition by 5 μM compd. (%)” value was 15.0%. On the same count and under the same terms, for `Nc1ncn(CCC2CCN(C=O)CC2)c2nc(Sc3cc4c(cc3Br)C(=O)CC4)nc1-2` [compound 87, 4-(2-{6-Amino-8-[(6-bromo-1-oxo-2,3-dihydro-1H-inden-5-yl)thio]-3H-purin-3-yl}ethyl)piperidine-l-carbaldehyde] the value was 20.0%. In the case of `CC(=O)N1CCC(CCn2c(Sc3cc4c(cc3Br)OCCO4)nc3c(N)ncnc32)CC1` [compound 140, 9-[2-(1-Acetylpiperidin-4-yl)ethyl]-8-[(7-bromo-2,3-dihydro-1,4-benzodioxin-6-yl)thio]-9H-purin-6-amine], the IC50 is 45 nM. `CS(=O)(=O)N1CCC(CCn2c(Sc3cc4c(cc3C#N)OCCO4)nc3c(N)ncnc32)CC1` [compound 54, 7-[(6-Amino-9-{2-[1-(methylsulfonyl)piperidin-4-yl]ethyl}-9H-purin-8-yl)thio]-2,3-dihydro-1,4-benzodioxine-6-carbonitrile]: the IC50 turned out to be 550 nM.
